For the assay, the target named is T1, biotinylated HRP (Armoracia rusticana, UniProt P00433).
T1 construct: purchased Roche Diagnostics, Indianapolis, Ind., USA
T1 sequence (P00433 31-338 limits assumed): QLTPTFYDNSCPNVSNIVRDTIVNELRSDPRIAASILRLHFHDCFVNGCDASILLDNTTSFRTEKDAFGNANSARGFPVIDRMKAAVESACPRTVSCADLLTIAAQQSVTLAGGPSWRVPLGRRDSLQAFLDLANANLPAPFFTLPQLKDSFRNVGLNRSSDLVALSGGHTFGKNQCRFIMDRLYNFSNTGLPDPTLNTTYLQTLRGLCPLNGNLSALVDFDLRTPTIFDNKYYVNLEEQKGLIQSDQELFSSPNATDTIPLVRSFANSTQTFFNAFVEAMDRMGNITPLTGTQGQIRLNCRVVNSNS
Briefly: Model system for selection of SSIA (M280 btn-BSA-AK1-streptavidin particles + Btn-HRP:HRP). The conditions noted are these: for S/S0: Btn-HRP 0 ng/mL vs 0; for S/S0 / S1/S0 / S2/S0 / S3/S0 / S4/S0 / effect in the model system / utility as SSIA: SSIA 100 μM; for B-HRP0 light intensity: Btn-HRP 0 ng/mL; for B-HRP0 light intensity / B-HRP1 light intensity / B-HRP10 light intensity / B-HRP100 light intensity / B-HRP250 light intensity: total HRP 500 ng/mL, SSIA final 100 μM; for S1/S0: Btn-HRP 1 ng/mL vs 0; for B-HRP1 light intensity: Btn-HRP 1 ng/mL; for S2/S0: Btn-HRP 10 ng/mL vs 0; for B-HRP10 light intensity: Btn-HRP 10 ng/mL; for S3/S0: Btn-HRP 100 ng/mL vs 0; for B-HRP100 light intensity: Btn-HRP 100 ng/mL; for S4/S0: Btn-HRP 250 ng/mL vs 0; for B-HRP250 light intensity: Btn-HRP 250 ng/mL; for effect in the model system / utility as SSIA: conclusion in words. Format: biochemical. The protocol: The model system uses a microparticle conjugated to BSA (bovine serum albumin) labeled with a […] and acridan ketenedithioacetal chemiluminescent label (AK1) as the chemiluminescent-labeled sbp, and biotinylated HRP as the activator-labeled specific binding pair. In the model system, varying amounts of Btn-HRP is added to the chemiluminescent-labeled specific binding pair at 0, 1, 10, 100 and 250 ng/mL. Additional unlabeled HRP is added to reach a total HRP of concentration of 500 ng/mL in each reaction mixture. The unlabeled HRP in combination with the activator-labeled sbp was provided to the chemiluminescent-labeled sbp microparticles to emulate sample. A compound for assessment as an SSIA was also added. This reaction mixture of the model system is then triggered by addition of trigger solution in a manner of assays of the present disclosure.
To prepare the chemiluminescent-labeled sbp on microparticles, Bovine Serum Albumin (BSA) was biotinylated with 4× molar excess of biotin-LC-sulfoNHS (Pierce Biotechnology Inc., Rockford, Ill., USA). Unbound reactants were removed via desalting or dialysis. The biotin-BSA was then reacted with a 5× molar excess of acridan ketenedithioacetal AK1 in 20 mM sodium phosphate pH 7.2: DMSO 75:25, v/v) followed by desalting in the same buffer. The dual labeled (biotin and AK1) BSA was then coupled with tosyl activated M-280 microparticles (Invitrogen Corporation, Carlsbad, Calif., USA) in a 0.1 M borate buffer pH 9.5 at a concentration of ca. 20 μg labeled BSA per mg of microparticles for 16-24 h at 40° C. After coupling the microparticles were stripped for 1 h at 40° C. with 0.2 M TRIS base, 2% SDS, pH ˜11. The stripping process was repeated one additional time. Microparticles were then suspended in a 0.1% BSA/TRIS buffered saline (BSA/TBS) buffer and streptavidin (SA) was added at approximately 15 μg SA per mg microparticles. Streptavidin was mixed with the microparticles for 45-50 min at room temperature. The microparticles were then washed three times and suspended in the same BSA/TBS.
HRP, (Roche Diagnostics, Indianapolis, Ind., USA) was biotinylated with 4× molar excess of biotin-LC-sulfoNHS (Pierce Biotechnology Inc., Rockford, Ill., USA). Unbound reactants were removed via desalting or dialysis.
Each SSIA compound for assessment was dissolved in Buffer II at a concentration at least 10× of final concentration of the reaction mixture (after the addition of the trigger solution)
Paramagnetic particles (PMP): (M280)-(btn-BSA-AK)-(Streptavidin);
Sample Emulator: B-HRP:HRP; 500 ng/mL total with titration of B-HRP:HRP at Total HRP concentration of 500 ng/mL, with Btn-HRP variations: 0, 1, 10, 100 and 250 ng/mL.
SSIA: According to tables below in BUFFER II targeted to give a final concentration of 100 μM.
Trigger solution A is defined above.
5 μl of 1 mg/ml of dual-labeled (biotin and AK1) BSA M280 particles were mixed with 45 μl of working concentration SSIA in Buffer II. The assay volume brought to […] by adding 15 μl of Buffer II. 15 μl of sample containing Btn-HRP:HRP at different ratios (The amount of biotinylated-HRP varied from 0, 1, 10, 100 and 250 ng/mL) was added. The reaction mixture was incubated for 30 min at 37° C., then 100 μL of trigger solution was added and the light intensity recorded. Total volume of reaction mixture, including trigger solution was […] with a final concentration of 100 μM of SSIA.

Molecules are shown by their SMILES.

Consider `COc1cc(/C=C/C(=O)O)ccc1O` [Ferulic acid], for which the S/S0 was 1, the B-HRP0 light intensity was 5,252, the S1/S0 is reported as 2.3 and the B-HRP1 light intensity is on record as 12,079. For the same molecule, the S2/S0 is reported as 136.2, the B-HRP10 light intensity is listed as 715,313, the S3/S0 is 1672.9 and the B-HRP100 light intensity was 8,785,865. The S4/S0 worked out at 1950.5 and the B-HRP250 light intensity is 10,244,269.

`COc1ccc2[nH]cc(CCNC(C)=O)c2c1` [Melatonin]: the S/S0 amounted to 1, the B-HRP0 light intensity is on record as 54,528, the S1/S0 amounted to 1.3 and the B-HRP1 light intensity is given as 70,741. For the same molecule, the S2/S0 is 43.7, the B-HRP10 light intensity was 2,381,361, the S3/S0 is recorded as 173.7 and the B-HRP100 light intensity was 9,471,431. The S4/S0 is recorded as 190.2, the B-HRP250 light intensity is given as 10,370,061 and the “effect in the model system / utility as SSIA” value is listed as “no effect”.

As to `CC(=O)N[C@@H](CS)C(=O)O` [N-Ac-Cysteine, N-acetyl cysteine], the S/S0 is on record as 1, the B-HRP0 light intensity was 43,647, the S1/S0 is listed as 1.1 and the B-HRP1 light intensity is reported as 47,636. In addition, the S2/S0 stood at 40.3, the B-HRP10 light intensity is reported as 1,757,607, the S3/S0 was 199 and the B-HRP100 light intensity is 8,685,795. Further, the S4/S0 came out at 234.2, the B-HRP250 light intensity is reported as 10,219,869 and the “effect in the model system / utility as SSIA” value is on record as “no effect”.

As to `NNC(=O)c1cccnc1` [Nicotinic Hydrazide], the S/S0 came out at 1, the B-HRP0 light intensity is 42,260, the S1/S0 was 1.4 and the B-HRP1 light intensity is listed as 58,356. The S2/S0 came to 49.8, the B-HRP10 light intensity is 2,106,471, the S3/S0 came out at 194.2 and the B-HRP100 light intensity is listed as 8,205,320. Besides, the S4/S0 stood at 187.5, the B-HRP250 light intensity is 7,923,092 and the “effect in the model system / utility as SSIA” value was “no effect”.

As for `Oc1ccc(C=Cc2cc(O)cc(O)c2)cc1` [Resveratrol], the B-HRP0 light intensity is recorded as 64,051, the B-HRP1 light intensity was 81,452, the B-HRP10 light intensity is given as 1,073,968 and the B-HRP100 light intensity is given as 5,944,792.

Take `COc1cc(C(=O)O)cc(OC)c1O` [Syringic Acid]: the S/S0 stood at 1, the B-HRP0 light intensity was 14,485, the S1/S0 came out at 1.6 and the B-HRP1 light intensity is reported as 23,707. For the same molecule, the S2/S0 was 64.8, the B-HRP10 light intensity is listed as 939,372, the S3/S0 came out at 547.2 and the B-HRP100 light intensity is 7,927,096. For the same molecule, the S4/S0 is listed as 658 and the B-HRP250 light intensity is 9,530,979.

With `CC1(C)CC(O)CC(C)(C)N1[O]` [TEMPOL], the S/S0 came to 1, the B-HRP0 light intensity was 22,621, the S1/S0 is given as 1.5 and the B-HRP1 light intensity is 33,873. The S2/S0 was found to be 86.8, the B-HRP10 light intensity is listed as 1,963,369, the S3/S0 is 407.6 and the B-HRP100 light intensity is 9,220,799. Also, the S4/S0 is on record as 467.6, the B-HRP250 light intensity was 10,578,104 and the “effect in the model system / utility as SSIA” value was “no effect”.

These data come from patent US20100273189A1, “NON SEPARATION ASSAYS WITH SELECTIVE SIGNAL INHIBITORS” (BECKMAN COULTER, INC., priority 2009, published 2010).
